Results from PMC8343220, “The selectivity of α‐adrenoceptor agonists for the human α1A, α1B, and α1D‐adrenoceptors” (Pharmacology Research & Perspectives, 2021).
Values joined by “and” are separate entries in the source; they are usually repeats but may differ in a detail not shown here. Equal entries are not always repeated. Where two headings read alike, the source gives them in different places.

Legend:
human α1A‐adrenoceptor [1] = molecular target: T1, human α1A‐adrenoceptor (Homo sapiens, UniProt P35348); experiment: ^3H‐prazosin whole‐cell radioligand binding, CHO‐α1A cells; details: for Kd: CHO‐α1A cells, given as log KD (negative), mean ± SEM; for Affinity selectivity ratio α1A vs α1B: higher affinity for α1A than α1B; for Affinity selectivity ratio α1A vs α1D: higher affinity for α1A than α1D
T1 construct: expressed in transfected cells; host or cells: CHO-K1
T1 sequence (P35348 1-466): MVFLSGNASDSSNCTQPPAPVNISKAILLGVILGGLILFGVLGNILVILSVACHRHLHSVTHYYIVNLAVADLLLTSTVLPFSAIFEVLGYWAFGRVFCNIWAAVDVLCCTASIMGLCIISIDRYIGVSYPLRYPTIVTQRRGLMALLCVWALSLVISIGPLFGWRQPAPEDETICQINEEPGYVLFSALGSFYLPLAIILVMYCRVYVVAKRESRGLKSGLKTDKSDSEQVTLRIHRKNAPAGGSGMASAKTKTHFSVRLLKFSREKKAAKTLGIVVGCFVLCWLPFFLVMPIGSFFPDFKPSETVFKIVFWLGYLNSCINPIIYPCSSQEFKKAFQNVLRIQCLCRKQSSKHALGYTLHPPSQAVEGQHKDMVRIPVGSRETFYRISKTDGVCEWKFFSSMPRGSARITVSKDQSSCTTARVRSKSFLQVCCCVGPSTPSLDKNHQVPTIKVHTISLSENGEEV

human α1B‐adrenoceptor [2] = molecular target: T2, human α1B‐adrenoceptor (Homo sapiens, UniProt P35368); experiment: ^3H‐prazosin whole‐cell radioligand binding, CHO‐α1B cells; details: CHO‐α1B cells
T2 construct: expressed in transfected cells; host or cells: CHO-K1
T2 sequence (P35368 1-520): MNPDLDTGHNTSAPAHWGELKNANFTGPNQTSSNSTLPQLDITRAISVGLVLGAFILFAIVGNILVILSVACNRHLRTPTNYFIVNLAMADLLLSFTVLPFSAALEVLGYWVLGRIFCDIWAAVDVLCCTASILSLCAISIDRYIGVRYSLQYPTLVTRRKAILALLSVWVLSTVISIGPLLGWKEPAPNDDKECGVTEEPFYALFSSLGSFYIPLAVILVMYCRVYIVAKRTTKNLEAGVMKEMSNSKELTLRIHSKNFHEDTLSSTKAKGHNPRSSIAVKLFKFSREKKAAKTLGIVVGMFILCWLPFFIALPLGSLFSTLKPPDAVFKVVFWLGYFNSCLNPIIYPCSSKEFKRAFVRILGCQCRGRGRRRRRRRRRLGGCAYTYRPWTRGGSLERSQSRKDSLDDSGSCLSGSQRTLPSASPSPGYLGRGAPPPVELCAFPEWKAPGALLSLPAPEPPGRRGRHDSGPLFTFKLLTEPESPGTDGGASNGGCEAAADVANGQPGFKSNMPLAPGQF

[3] = molecular target: T3, human α1D‐adrenoceptor (full length) (Homo sapiens, UniProt P25100); experiment: ^3H‐prazosin whole‐cell radioligand binding, CHO‐α1D cells
T3 construct: human α1D‐adrenoceptor (full length) were used; expressed in transfected cells; host or cells: CHO-K1
T3 sequence (P25100 1-572): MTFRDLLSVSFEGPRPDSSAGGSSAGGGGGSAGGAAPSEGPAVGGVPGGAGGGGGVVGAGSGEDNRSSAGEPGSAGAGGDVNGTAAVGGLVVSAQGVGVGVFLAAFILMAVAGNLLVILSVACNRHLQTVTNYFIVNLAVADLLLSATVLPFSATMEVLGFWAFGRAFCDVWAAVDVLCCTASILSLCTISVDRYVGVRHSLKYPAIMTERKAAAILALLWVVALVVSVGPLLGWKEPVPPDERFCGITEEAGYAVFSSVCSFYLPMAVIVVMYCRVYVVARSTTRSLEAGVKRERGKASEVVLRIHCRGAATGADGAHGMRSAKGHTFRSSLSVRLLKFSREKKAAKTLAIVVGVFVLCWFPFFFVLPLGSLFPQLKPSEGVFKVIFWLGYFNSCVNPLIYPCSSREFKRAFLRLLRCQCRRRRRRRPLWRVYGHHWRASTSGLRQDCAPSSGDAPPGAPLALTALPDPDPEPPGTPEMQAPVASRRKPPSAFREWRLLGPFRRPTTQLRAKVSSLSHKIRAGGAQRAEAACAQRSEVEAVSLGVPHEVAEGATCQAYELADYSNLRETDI

human α1A‐adrenoceptor [4] = molecular target: T1, human α1A‐adrenoceptor; experiment: Intracellular free calcium mobilization, CHO‐α1A cells; assay type: cell-based; details: CHO‐α1A cells; for Log efficacy ratio KD /EC50: binding KD and calcium EC50; for EC50: given as log EC50 (negative), read-out: Intracellular calcium release Log EC50 (converted); for Intracellular calcium release % ionomycin: maximal response as % of 10 µM ionomycin
human α1B‐adrenoceptor [5] = molecular target: T2, human α1B‐adrenoceptor; experiment: Intracellular free calcium mobilization, CHO‐α1B cells; assay type: cell-based; details: CHO‐α1B cells; for EC50: given as log EC50 (negative numbers), read-out: Intracellular calcium release Log EC50 (converted); for Log efficacy ratio KD /EC50: intrinsic efficacy ratio, KD from binding / EC50 calcium; for Intracellular calcium release % ionomycin: maximal response as % of 10 µM ionomycin response
[6] = molecular target: T3, human α1D‐adrenoceptor (full length); experiment: Intracellular free calcium mobilization, CHO‐α1D cells; assay type: cell-based; details: CHO‐α1D cells; for Log efficacy ratio KD /EC50: intrinsic efficacy ratio, binding KD / calcium EC50; for EC50: log values given negative, read-out: Intracellular calcium release Log EC50 (converted); for Intracellular calcium release % ionomycin: maximal response as % of 10 µM ionomycin
human α1A‐adrenoceptor [7] = molecular target: T1, human α1A‐adrenoceptor; experiment: ERK1/2‐phosphorylation (Surefire Alphascreen), CHO‐α1A cells; assay type: cell-based; details: CHO‐α1A cells, ^a bi‐phasic: initial stimulatory part; for EC50: 2–4 min, ^b also active in parent CHO cells, read-out: ERK1/2‐phosphorylation Log EC50 (converted); for ERK1/2‐phosphorylation % PDBu: % of 10 µM PDBu
human α1B‐adrenoceptor [8] = molecular target: T2, human α1B‐adrenoceptor; experiment: ERK1/2‐phosphorylation (Surefire Alphascreen), CHO‐α1B cells; assay type: cell-based; details: for EC50: read-out: ERK1/2‐phosphorylation Log EC50 (converted)
[9] = molecular target: T3, human α1D‐adrenoceptor (full length); experiment: ERK1/2‐phosphorylation (Surefire Alphascreen), CHO‐α1D cells; assay type: cell-based; details: for EC50: log values given negative, read-out: ERK1/2‐phosphorylation Log EC50 (converted)
[10] = tested on: parental CHO cell line without any transfected receptors; experiment: ERK1/2‐phosphorylation, parent CHO cells without transfected receptors; assay type: cell-based, Chinese hamster; details: for Emax at 100 µM: Cricetulus griseus, CHO, read-out: ERK1/2-phosphorylation % PDBu at 100μM
[11] = molecular target: T3, human α1D‐adrenoceptor (full length); experiment: ^3H‐cAMP accumulation, CHO‐α1D cells; assay type: cell-based; details: cAMP accumulation without forskolin
[12] = molecular target: T3, human α1D‐adrenoceptor (full length); experiment: ^3H‐cAMP accumulation in the presence of 10 μM forskolin, CHO‐α1D cells; assay type: cell-based; details: CHO‐α1D cells; for cAMP (in presence of forskolin) Fold increase: fold increase of the forskolin response
human α1A‐adrenoceptor [13] = molecular target: T1, human α1A‐adrenoceptor; experiment: ^3H‐cAMP accumulation, CHO‐α1A cells; assay type: cell-based; details: CHO‐α1A cells; for cAMP accumulation % forskolin: % of 10 µM forskolin response
human α1B‐adrenoceptor [14] = molecular target: T2, human α1B‐adrenoceptor; experiment: ^3H‐cAMP accumulation, CHO‐α1B cells; assay type: cell-based; details: CHO‐α1B cells; % forskolin maximum response
human α1A‐adrenoceptor [15] = molecular target: T1, human α1A‐adrenoceptor; experiment: ^3H‐cAMP accumulation in the presence of 10 μM forskolin, CHO‐α1A cells; assay type: cell-based
[16] = tested on: parental CHO cell line without any transfected receptors; experiment: Forskolin‐stimulated cAMP accumulation, parent CHO cells without transfected receptors; assay type: cell-based, Chinese hamster; details: CHO cells without transfected receptors; in presence of forskolin
[17] = CHO‐α1D cells, given as log KD (negative), mean ± SEM, 'early plateau' = specific binding not fully inhibited
[18] = CHO‐α1B cells, for bi‐phasic responses the initial stimulatory part
[19] = CHO‐α1B cells, maximal response as % PDBu response, for bi‐phasic responses the initial stimulatory part
[20] = CHO‐α1D cells, maximal response as % of PDBu
[21] = in presence of forskolin, log values given negative

SMILES	Affinity selectivity ratio α1A vs α1B (human α1A‐adrenoceptor [1]) [fold]	Affinity selectivity ratio α1A vs α1D (human α1A‐adrenoceptor [1]) [fold]	Kd [3, 17] [µM]	Log efficacy ratio KD /EC50 (human α1A‐adrenoceptor [4])	EC50 (human α1A‐adrenoceptor [4]) [µM]	Intracellular calcium release % ionomycin (human α1A‐adrenoceptor [4]) [%]	EC50 (human α1B‐adrenoceptor [5]) [µM]	Log efficacy ratio KD /EC50 (human α1B‐adrenoceptor [5])	Intracellular calcium release % ionomycin (human α1B‐adrenoceptor [5]) [%]	Log efficacy ratio KD /EC50 [6]	EC50 [6] [µM]	Intracellular calcium release % ionomycin [6] [%]	EC50 (human α1A‐adrenoceptor [7]) [µM]	ERK1/2‐phosphorylation % PDBu (human α1A‐adrenoceptor [7])	EC50 (human α1B‐adrenoceptor [8]; [18]) [µM]	ERK1/2‐phosphorylation % PDBu (human α1B‐adrenoceptor [8]; [19]) [%]	EC50 ([9]; CHO‐α1D cells) [µM]	ERK1/2‐phosphorylation % PDBu [9, 20] [%]	cAMP Log EC50 [11]	EC50 [12, 21] [µM]	other results
COc1nc(C)nc(Cl)c1N=C1NCCN1 [Moxonidine]	11.7	3.8	110	1.97	0.309	59.3 ± 4.5	0.324	3.02	57.9 ± 2.1	1.25	6.17	16.6 ± 2.9	0.141	78.0 ± 7.2%	0.912	102.0 ± 6.5	14.8	16.4 ± 1.6	No response	–	Kd (human α1A‐adrenoceptor [1]): 28.8 µM; Kd (human α1B‐adrenoceptor [2]; given as log KD (negative), mean ± SEM): 339 µM; Kd (human α1B‐adrenoceptor [2]; Log KD, ^3H‐prazosin binding, whole‐cell binding (from Table 1), given as log KD (negative numbers)): 339 µM; Kd ([3]; 3H‐prazosin binding Log KD, CHO‐α1D cells, whole‐cell binding (from Table 1), log values given negative): 110 µM; Affinity selectivity ratio α1B vs α1D ([3]; higher affinity for α1D than α1B): 3.1 fold; Emax at 100 µM [10]: 3.1 ± 1.9%; cAMP (in presence of forskolin) Fold increase [12]: No response; cAMP (in presence of forskolin) Log EC50 [12, 21]: No response
CNC[C@H](O)c1ccc(O)c(O)c1 [Adrenaline]	–	–	–	–	–	58.9 ± 3.7	–	–	–	–	0.0182	30.3 ± 2.3	–	71.3% and 71.3 ± 7.7%	–	–	0.182	32.2 ± 4.0	No response	0.871	Kd ([3]; Log KD α1D, ^3H‐prazosin whole cell binding, CHO‐α1D cells, given as log KD (negative), mean ± SEM, 'early plateau' = specific binding not fully inhibited): 6.46 µM; Intracellular calcium release % ionomycin (human α1A‐adrenoceptor [4]; listed as adrenaline): 58.9%; ERK1/2‐phosphorylation % PDBu (human α1B‐adrenoceptor [8]): 76.6 ± 9.0%; ERK1/2-phosphorylation % PDBu ([10]; CHO cells without transfected receptors, maximal response as % of PDBu (10μM) response, mean ± s.e.m.): No response; cAMP accumulation % forskolin (human α1A‐adrenoceptor [13]): 164% and 164.0 ± 7.3%; cAMP accumulation % forskolin (human α1B‐adrenoceptor [14]): 172.1 ± 11.3%; Gi‐mediated inhibition of forskolin‐stimulated cAMP, CHO‐α1A cells (human α1A‐adrenoceptor [15]): did not inhibit cAMP accumulation; cAMP accumulation (in presence of forskolin) Log EC50 [16]: No response
CNC[C@H](O)c1cccc(O)c1 [R‐phenylephrine]	–	–	22.4	–	–	58.3 ± 2.9	–	–	67.0 ± 3.3	–	0.0631	–	–	84.5 ± 4.5%	–	77.0 ± 4.8	0.676	15.8 ± 2.9	No response	0.17	cAMP accumulation % forskolin (human α1A‐adrenoceptor [13]): 132.5 ± 4.5%; cAMP accumulation % forskolin (human α1B‐adrenoceptor [14]): 86.2 ± 5.3%
NCC(O)c1ccc(O)cc1 (stereo not shown) [Octopamine]	>2.8	>2.8	–	2.66	0.794	57.5 ± 2.1	1.23	>2.91	54.9 ± 2.9	>2.20	6.31	–	4.17	81.2 ± 6.8%	7.76	76.1 ± 6.8	18.6	–	No response	1.82	Kd (human α1A‐adrenoceptor [1]; Log KD α1A, ^3H‐prazosin whole cell binding): 363 µM; IC50 (human α1B‐adrenoceptor [2]; printed as IC50> log value): > 1000 µM; 3H‐prazosin binding log IC50 (bound, printed in Log KD column) ([3]; CHO‐α1D cells, whole‐cell binding, given as IC50 > log value): IC50 > −3; IC50 ([3]; CHO‐α1D cells, printed as IC50> log value): > 1000 µM; ERK1/2‐phosphorylation % PDBu [9]: 14.5 ± 5.9%; Emax at 100 µM [10]: 2.9 ± 1.8%; cAMP accumulation % forskolin at 100 µM (human α1A‐adrenoceptor [13]; response at 100 μM ligand, no EC50 obtained): 18.0 ± 1.5%; cAMP accumulation (in presence of forskolin) Fold increase at 100 µM (human α1A‐adrenoceptor [15]; CHO‐α1A cells, response at 100 μM ligand, no EC50 obtained): 1.89 ± 0.06 fold; cAMP (in presence of forskolin) Fold increase [12]: 1.17 ± 0.06; cAMP accumulation (in presence of forskolin) Log EC50 [16]: No response
